pIC50: −log10 of the molar value.
Key:
[1] = Human liver microsomal clearance (hLM Cl); type: in vitro ADME; settings: cells marked *
[2] = molecular target: T1, wt human LRRK2, catalytic site (Homo sapiens, UniProt Q5S007); experiment: TR-FRET LanthaScreen Tb Kinase Activity Assay, LRRK2 kinase inhibition; type: biochemical; settings: 2 nM wt human LRRK2, 400 nM peptide, 38 μM ATP
T1 construct: wt human LRRK2, catalytic site, catalytic site (ThermoFisher/USA); purchased ThermoFisher
Description: The compounds disclosed herein were tested for their inhibitory effect on LRRK2 kinase according to the following procedures.
The protocol for basic TR-FRET LanthaScreen Tb Kinase Activity Assay inhibitor studies is as follows. LanthaScreen Kinase Activity Assays (ThermoFisher/USA) to evaluate inhibitors were performed by addition of 100 nL of test compound in the corresponding DMSO dilutions/5 L of kinase/fluorescein-ERM(LRRKtide) peptide mixture, Compound & kinase were pre-incubated for 15 minutes, then 5 μl of ATP into 384 well small volume plates. After incubation for 120 minutes at room temperature, the detection reagents containing Tb-anti-pLRRKtide antibody were added to monitor the phosphrylation level of peptide. Then, after 60 min minutes incubation at room temperature plates were read in Envision. Data analysis of emission ratios was according to the LanthaScreen Tb Kinase Activity Assay protocol.
Kinase and assay components were adjusted to final concentrations according to the kit protocol. For LRRK2: 2 nM wt human LRRK2, catalytic site, catalytic site (ThermoFisher/USA), 400 nM peptide, 38 μM ATP in 1× Kinase Buffer A.
Basic protocol for TR-FRET LanthaScreen Tb Kinase Activity Assay inhibitor studies involved two steps: Enzymatic step: Addition of 100 nl of test compound in corresponding DMSO dilutions, 5 μl of kinase/substrate mixture, 5 μl of ATP into 384 well small volume plates. Incubation for 120 minutes at room temperature.
Detection step: Addition of 10 μl EDTA & antibody, read plate after 60 minutes. Data analysis of emission ratios according to KinEASE assay protocol.
Kinase and assay components were adjusted to final concentrations according to the kit protocol.

Caco-2 cells = experiment: Caco-2 bidirectional permeability; type: in vitro ADME; settings: for Caco-2 A2B (10^−6 cm/s): A to B; for Caco-2 A2B (10^−6 cm/s) / Caco-2 B2A (10^−6 cm/s): HBSS pH 7.4, 2 hours; for Caco-2 B2A (10^−6 cm/s): B to A; for Caco-2 ER: Efflux Ratio=Papp (BA)/Papp (AB)
Description: The compounds disclosed herein were tested in vitro on CaCo2 cell penetration according to the following procedures.
Test compounds were prepared in dimethyl sulfoxide (DMSO).
Caco-2 cells purchased from ATCC were seeded onto […] (PET) in 96-well Corning Insert plates at 1×10^5 cells/cm^2. The media were refreshed every 4 to 5 days until the 21st to 28th day for confluent cell monolayer formation.
Experiments were run in duplicate using a HBSS transport buffer containing 10 mM HEPES at pH 7.4. The test article TEST COMPOUND was tested bi-directionally at […] concentrations, the control compound digoxin was tested bi-directionally at 10 μM, and nadolol and metoprolol were tested at 2.0 μM in the A to B direction. Final DMSO concentrations were adjusted to less than 1%. The plates were incubated for 2 hours in a CO2 incubator at 37±1° C. with 5% CO2 at saturated humidity without shaking. Following incubation, samples were mixed with acetonitrile containing internal standard and centrifuged at 3200×g for 10 minutes. Then 200 μL of supernatant was taken from all samples. For TEST COMPOUND and digoxin, the supernatant was diluted with 200 μL of ultra-pure water and for nadolol and metoprolol, the supernatant was diluted with 600 μL of ultra-pure water. All samples were analyzed by LC-MS/MS. Concentrations of TEST COMPOUND and control compounds were determined in starting solutions, donor well solutions, and receiver well solutions using peak area ratios (PAR) of analyte to internal standard. After the transport assay, a lucifer yellow rejection assay was run to determine the Caco-2 cell monolayer integrity.
The apparent permeability (Papp), the % recovery and the efflux ratio were calculated as follows: • 1. Papp=(dCr/dt)×Vr/(A×C0) • 2. % Recovery=100×[(Vr×Cr)+(Vd×Cd)]/(Vd×C0) • 3. Efflux Ratio=Papp (BA)/Papp (AB) • Where: • dCr/dt is the slope of the cumulative concentration in the receiver compartment versus time (mM/s). • Vr and Vd is the volume in the receiver and donor compartments (0.075 mL on the apical side, 0.25 mL on the basolateral side), respectively. • A is the surface area of the cell monolayer (0.0804 cm^2). • C0 is the measured donor concentrations (μM) at the beginning of the experiment. • Cd and Cr are the final measured concentrations in the donor and receiver compartments, respectively.
The cell monolayer tight junction integrity assay was conducted after completion of the transport assay by adding Lucifer Yellow (LY) to the apical wells at 100 μM and incubating the cells for 30 minutes. Following incubation, tight junction integrity was assessed from LY concentrations in the basolateral compartment (receiver well) and the apical compartment (donor well) using fluorescence detection as follows: […]

[3] = Human hepatocyte stability, in vitro h-Hept CLpredict; type: in vitro ADME; settings: cryopreserved hepatocytes, predicted hepatic clearance, cells without asterisk, read-out: hHep Cl
Description: The compounds disclosed herein were tested in vitro on human hepatocyte for in vitro h-Hept CLpredict according to the following procedures. • 1. Compound sock solutions were prepared by dissolving test compound and positive control in dimethyl sulfoxide (DMSO) at a concentration of 10 mM. Stock solutions were then diluted to 100 μM solutions by combining 198 μL of 50% acetonitrile/50% water with 2 μL of the 10 mM stock stock in separate conical tubes. • 2. Cryopreserved hepatocytes were prepared as follows: Incubation medium (William's E Medium supplemented with GlutaMAX) and hepatocyte thawing medium were placed in a 37° C. water bath and allowed to warm for at least 15 minutes prior to use. Cryopreserved hepatocytes were removed from storage, ensuring that vials remained at cryogenic temperatures until thawed. Cells were thawed by placing the vials in a 37° C. water bath and gently shaking the vials for 2 minutes. After thawing was completed, vials were sprayed with 70% ethanol and transferred to a biosafety cabinet. Hepatocytes were transferred into 50 mL conical tube containing thawing medium using wide-bore pipette tips. Tubes were placed into a centrifuge and spun at 100 g for 10 minutes. Then thawing medium was aspirated and hepatocytes were resuspended in enough incubation medium to yield−1.5×10^6 cells/mL. Cells were counted using acridine orange and propidium iodide (AO/PI) staining, and the viable cell density was determined. Cells were diluted with incubation medium to a working cell density of 0.5×10^6 viable cells/mL. • 3. To determine hepatocyte stability, 198 μL of hepatocytes were transferred into each well of a 96-well non-coated plate. Plates were placed in an incubator to allow the hepatocytes to warm for 10 minutes. • 4. The reaction was started by transferring 2 μL of the 100 μM test compound or positive control solution into respective wells of the 96-well non-coated plates. Plates were returned to the incubator until 25 μL aliquots of well contents were sampled at time points of 0, 15, 30, 60, 90 and 120 minutes. The aliquots were then mixed with 6 volumes (150 μL) of acetonitrile containing internal standard, IS (100 nM alprazolam, 200 nM caffeine and 100 nM tolbutamide) to terminate the reaction and vortexed for 5 minutes. After centrifuging the samples for 45 minutes at 3,220 g, aliquots of 100 μL of the supernatant were taken and diluted with 100 μL of ultra-pure water. The mixture was used for LC/MS/MS analysis. All incubations were performed in duplicate.
All calculations were carried out using Microsoft Excel. Peak area ratios (PAR) were determined from extracted ion chromatograms. The in vitro half-life (t1/2) of parent compound was determined by regression analysis of the percent parent disappearance vs. time curve as follows:
The in vitro half-life (in vitro t1/2) was determined from the slope value:
Conversion of the in vitro t1/2 (in minutes) into the in vitro intrinsic clearance (in vitro CLint, in μL/min/1×10^6 cells) was done using the following equation (mean of duplicate determinations): […]
The scaled-up intrinsic clearance (CLint, mL/min/kg), predicted hepatic clearance (CLH, mL/min/kg) and hepatic extraction ratio (ER) were calculated using the following equations:
CLint=(0.693/t1/2)*(1/(hepatocyte concentration (0.5*10^6 cells/mL))*scaling factors (Table (A)
• CLHept-predict=(QH*Scaled-up CLint*fub)/(QH+Scaled-up CLint*fub) • ER=CLH/QH • Where: • V=incubation volume (0.2 mL) • N=number of hepatocytes per well (0.1*10^6 cells) • QH=hepatic blood flow (mL/min/kg) (Table (A)
• fub=fraction of unbound drug in plasma, assumed to be 1 • Values used for calculation of the predicted hepatic clearance parameters data processing rules are outlined in the following tables (A) (B)

T1 sequence (Q5S007 1879-2138 limits assumed): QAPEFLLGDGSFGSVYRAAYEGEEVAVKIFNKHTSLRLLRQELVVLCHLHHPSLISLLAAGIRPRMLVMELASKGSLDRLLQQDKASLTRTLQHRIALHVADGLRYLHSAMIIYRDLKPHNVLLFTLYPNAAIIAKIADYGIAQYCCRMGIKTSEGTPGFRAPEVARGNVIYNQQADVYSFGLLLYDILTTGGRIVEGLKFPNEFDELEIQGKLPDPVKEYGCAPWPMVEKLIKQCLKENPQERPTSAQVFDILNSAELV

SMILES | pIC50 [2] | Caco-2 B2A (10^−6 cm/s) (Caco-2 cells) | Caco-2 ER (Caco-2 cells) | CLhep predicted at 1 µM [3] | hLM Cl (mL/min/kg) [1] | Caco-2 A2B (10^−6 cm/s) (Caco-2 cells)
Cc1n[nH]c2c1N=C(c1c(F)cccc1F)Nc1c-2cc(N2CCN(C)[C@H](C(F)(F)F)C2)nc1C (single isomer, unassigned) [Example 36] | > 8.70 | H (H (High permeability)”: A2B (B2A)>5) | N (N (Non-substrate)”: ER<2.5) |  | I* (I (Intermediate C1)”: 6.3 mL/min/kg≤Hep Cl≤14.7 mL/min/kg) | H (H (High permeability)”: A2B (B2A)>5)
Cc1n[nH]c2c1N=C(c1c(F)cccc1F)Nc1c-2cc(N2CCC[C@@]3(CCOC3)C2)nc1C (single isomer, unassigned) [Example 50] | > 8.70 | H (H (High permeability)”: A2B (B2A)>5) | N (N (Non-substrate)”: ER<2.5) |  | I* (I (Intermediate C1)”: 6.3 mL/min/kg≤Hep Cl≤14.7 mL/min/kg) | H (H (High permeability)”: A2B (B2A)>5)
Cc1n[nH]c2c1N=C(c1c(F)cccc1F)Nc1c-2cc(N2CCOCC2)nc1C(F)(F)F [Example 4, 4-[8-(2,6-difluorophenyl)-5-methyl-11-(trifluoromethyl)-3,4,7,9,12-pentazatricyclo[8.4.0.02,6]tetradeca-1(10),2(6),4,7,11,13-hexaen-13-yl]morpholine] | 7.00 to 8.70 | L (L (Low permeability)”: A2B(B2A)<1) | N (N (Non-substrate)”: ER<2.5) |  | I* (I (Intermediate C1)”: 6.3 mL/min/kg≤Hep Cl≤14.7 mL/min/kg) | M (M (Moderate permeability)”: 1≤A2B (B2A)≤5)
Cc1n[nH]c2c1N=C(c1c(F)cccc1F)Nc1c-2cc(N2CC3CC(C2)O3)nc1C [Example 41, 3-(5-(2,6-difluorophenyl)-3,7-dimethyl-1,6-dihydropyrazolo[4,3-d]pyrido[4,3-f][1,3]diazepin-9-yl)-6-oxa-3-azabicyclo[3.1.1]heptane] | > 8.70 | H (H (High permeability)”: A2B (B2A)>5) | N (N (Non-substrate)”: ER<2.5) |  | I* (I (Intermediate C1)”: 6.3 mL/min/kg≤Hep Cl≤14.7 mL/min/kg) | H (H (High permeability)”: A2B (B2A)>5)
Cc1n[nH]c2c1N=C(c1c(F)cccc1F)Nc1c-2cc(N2CCO[C@@H](COC(F)(F)F)C2)nc1C [Example 48, (R)-4-(5-(2,6-difluorophenyl)-3,7-dimethyl-1,6-dihydropyrazolo[4,3-d]pyrido[4,3-f][1,3]diazepin-9-yl)-2-((trifluoromethoxy)methyl)morpholine] | > 8.70 | M (M (Moderate permeability)”: 1≤A2B (B2A)≤5) | N (N (Non-substrate)”: ER<2.5) |  | I* (I (Intermediate C1)”: 6.3 mL/min/kg≤Hep Cl≤14.7 mL/min/kg) | M (M (Moderate permeability)”: 1≤A2B (B2A)≤5)

Now from value to compound, other results behind:

pIC50 [2] | Caco-2 B2A (10^−6 cm/s) (Caco-2 cells) | Caco-2 ER (Caco-2 cells) | CLhep predicted at 1 µM [3] | SMILES | hLM Cl (mL/min/kg) [1] | Caco-2 A2B (10^−6 cm/s) (Caco-2 cells)
> 8.70 | H (H (High permeability)”: A2B (B2A)>5) | N (N (Non-substrate)”: ER<2.5) |  | Cc1n[nH]c2c1N=C(c1c(F)cccc1F)Nc1c-2cc(C2CCOCC2)nc1C [Example 38, 8-(2,6-difluorophenyl)-5,11-dimethyl-13-tetrahydropyran-4-yl-3,4,7,9,12-pentazatricyclo[8.4.0.02,6]tetradeca-1(10),2(6),4,7,11,13-hexaene] | I* (I (Intermediate C1)”: 6.3 mL/min/kg≤Hep Cl≤14.7 mL/min/kg) | H (H (High permeability)”: A2B (B2A)>5)
7.00 to 8.70 | H (H (High permeability)”: A2B (B2A)>5) | N (N (Non-substrate)”: ER<2.5) | 6.3 to 14.7 mL/min/kg | Cc1n[nH]c2c1N=C(c1c(F)cccc1F)Nc1cnc(-n3ccc(C#N)n3)cc1-2 [Example 57, 1-[8-(2,6-difluorophenyl)-5-methyl-3,4,7,9,12-pentazatricyclo [8.4.0.02,6]tetradeca-1(10),2(6),4,7,11,13-hexaen-13-yl]pyrazole-3-carbonitrile] |  | H (H (High permeability)”: A2B (B2A)>5)
> 8.70 | H (H (High permeability)”: A2B (B2A)>5) | N (N (Non-substrate)”: ER<2.5) | 6.3 to 14.7 mL/min/kg | Cc1n[nH]c2c1N=C(c1c(F)cccc1F)Nc1cnc(-c3ccc(C(F)(F)F)nc3)cc1-2 [Example 58, 8-(2,6-difluorophenyl)-5-methyl-13-[6-(trifluoromethyl)-3-pyridyl]-3,4,7,9,12-pentazatricyclo[8.4.0.0^2,6]tetradeca-1(10),2(6),4,7,11,13-hexaene] |  | H (H (High permeability)”: A2B (B2A)>5)

From US20240208972A1, “LRRK2 INHIBITORS AND USES THEREOF” (NEURON23, INC., priority 2022, published 2024)
